This note sets out measurements from US11104663B2 (priority 2017, dated 2021).

The format of data set [1] is physicochemical. Particulars: for d50: median particle size; for d10 / d90: particle size; for d10: 10th percentile; for d90: 90th percentile. As for the experimental part:
The suspensions were sonicated in a bath or with a sonic probe prior to analysis to deagglomerate and form a homogeneous suspension. Particle size was analyzed by both light obscuration and laser diffraction methods.

Data set [2] is described as follows: Specific surface area analysis (BET). Particulars: for SSA: BET method.
Data set [3] is described as follows: in vivo. Particulars: male, Sprague Dawley (CD), rat, lung.
For data set [4] the following is noted: rat, i.v. 5 mg/kg.
The mark [5] stands for this setting: Example 1 processed vs raw material.

Where two headings read alike, the source gives them in different places.

Turning to `O=C(O)c1cn(C2CC2)c2cc(N3CCNCC3)c(F)cc2c1=O` [Ciprofloxacin Raw material, 1-cyclopropyl-6-fluoro-4-oxo-7-(piperazin-1-yl)-1,4-dihydroquinoline-3-carboxylic acid, reference compound], in data set [1], the d50 came out at 14.8 μm, the d10 was found to be 1.44 μm and the d90 is 244 μm. This compound also displayed an SSA in data set [2] of 11.8 m^2/g.

In the case of `Cl.O=C(O)c1cn(C2CC2)c2cc(N3CCNCC3)c(F)cc2c1=O` [Ciprofloxacin hydrochloride Raw material, 1-cyclopropyl-6-fluoro-4-oxo-7-(piperazin-1-yl)-1,4-dihydroquinoline-3-carboxylic acid hydrochloride salt, reference compound], in data set [1] (hydrochloride salt), the d50 came out at 22.7 μm, the d10 was 6.05 μm and the d90 worked out at 56.0 μm. Also, in data set [2] (hydrochloride salt), the SSA was 7.68 m^2/g.

On to `O=C(O)c1cn(C2CC2)c2cc(N3CCNCC3)c(F)cc2c1=O` [Ex. 2 ciprofloxacin, 1-cyclopropyl-6-fluoro-4-oxo-7-(piperazin-1-yl)-1,4-dihydroquinoline-3-carboxylic acid], for which, in data set [3] (inhaled, 3 mg/kg), the concentration at 0.5 h came out at 153000 ng/g, the concentration at 6 h stood at 48400 ng/g, the concentration at 12 h stood at 12800 ng/g and the concentration at 24 h amounted to 607 ng/g.

As to `Cl.O=C(O)c1cn(C2CC2)c2cc(N3CCNCC3)c(F)cc2c1=O` [Example 1 processed, 1-cyclopropyl-6-fluoro-4-oxo-7-(piperazin-1-yl)-1,4-dihydroquinoline-3-carboxylic acid hydrochloride salt], in data set [1] (setting [5]), the “% Change of d10” value is recorded as −90%, the “% Change of d50” value was −94% and the “% Change of d90” value is −94%. For the same compound, in data set [1] (hydrochloride salt), the d50 turned out to be 1.37 μm, the d10 is 0.61 μm and the d90 came to 3.64 μm. Moreover, in data set [2] (hydrochloride salt), the SSA worked out at 19.42 m^2/g. Further, the “% Change of SSA” value in data set [2] (setting [5]) is given as “+153%”.

Regarding `O=C(O)c1cn(C2CC2)c2cc(N3CCNCC3)c(F)cc2c1=O` [Example 2 processed Batch 1, 1-cyclopropyl-6-fluoro-4-oxo-7-(piperazin-1-yl)-1,4-dihydroquinoline-3-carboxylic acid], in data set [1], the d50 amounted to 4.63 μm, the d10 was determined as 1.62 μm and the d90 worked out at 9.32 μm. In addition, the SSA in data set [2] is given as 7.68 m^2/g.

In the case of `O=C(O)c1cn(C2CC2)c2cc(N3CCNCC3)c(F)cc2c1=O` [Example 2 processed Batch 2, 1-cyclopropyl-6-fluoro-4-oxo-7-(piperazin-1-yl)-1,4-dihydroquinoline-3-carboxylic acid], in data set [1], the d50 is recorded as 5.57 μm, the d10 is 1.79 μm and the d90 is 13.3 μm. The compound further had an SSA in data set [2] of 14.3 m^2/g.

`O=C(O)c1cn(C2CC2)c2cc(N3CCNCC3)c(F)cc2c1=O` [Example 2 processed Batch 3, 1-cyclopropyl-6-fluoro-4-oxo-7-(piperazin-1-yl)-1,4-dihydroquinoline-3-carboxylic acid]: in data set [1], the d50 was found to be 3.26 μm, the d10 is recorded as 1.19 μm and the d90 was found to be 6.65 μm. Moreover, the SSA in data set [2] is recorded as 12.9 m^2/g.

With `O=C(O)c1cn(C2CC2)c2cc(N3CCNCC3)c(F)cc2c1=O` [ciprofloxacin, reference compound], the Lung concentration result in data set [4] (12 hours) was “BQL*”. Besides, the Lung concentration result in data set [4] (24 hours) was “BQL”. In data set [3] (iv, 5 mg/kg), this compound yielded a concentration at 0.5 h of 843 ng/g and a concentration at 6 h of 113 ng/g.
